The text below walks through data of patent publication US20210030908A1 (priority 2013, published 2021).

One test relates to anthrax spores. The conditions noted are these: gas or vapor phase application, prior art; cited from earlier work.
Test [1] relates to Bacillus atrophaeus spore strip. In kind it is cell-based. The following applies: for Sterilization (6-log reduction of Bacillus atrophaeus), Exposure Time 5 Minutes (CT = 250): 3,000 ppmv ClO2 in air, 700 feet/sec, nozzle 2.54 cm from target, CT in ppmv-hrs, per sample replicate.
Another test concerns mold spores. The following applies: time averaged concentration about 500 to 1500 ppmv over a 12 hour period, prior art; cited from earlier work.

Structures are written as SMILES. Where two headings read alike, the source gives them in different places.

As to `[O][Cl+][O-]` [chlorine dioxide], the “CT found effective for sterilizing anthrax spores” value in the test on anthrax spores is reported as 9000 ppmv-hrs. For the same molecule, the “Sterilization (6-log reduction of Bacillus atrophaeus), Exposure Time 5 Minutes (CT = 250)” value is recorded as “− (“−” indicates at least a 6-log reduction of Bacillus atrophaeus)” in test [1] (Group 1 spore strips, pre-humidified for one hour at about 75 degrees F.) and “− (“−” indicates at least a 6-log reduction of Bacillus atrophaeus)” in test [1] (Group 2 spore strips, no pre-humidification prior to test). Further, in test [1] (every test (all exposure times, with and without pre-humidification)), the “Oxidation of the target” value is on record as “every test resulted in oxidation of the target”. Also, the “Sterilization outcome” value in test [1] (no pre-humidification, exposure times of 30 seconds, 1 minute, and 2 minutes, at CT's of 25, 50, and 100) was “some sterilization”; in test [1] (no pre-humidification, exposure times of at least 5 minutes at a CT of 250) it was “successful sterilization of all targets”; in test [1] (pre-humidified application zones, exposure times greater than or equal to 1 minute, CT greater than or equal to 50), “successful sterilization of the targets for all applications”. For the same molecule, the “Applications resulting in successful sterilization” value in test [1] (pre-humidified application zones, 30 seconds at a CT of 25) is 75%. Besides, in the test on mold spores, the “CT found effective for killing mold spores and eliminating allergenic effects” value is recorded as 6000-18000 ppmv-hrs.
